Data on 10 compounds can be found in ChEMBL document CHEMBL1201862, “PubChem BioAssay data set” (2004).

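Grown in 96-well plates, cells were treated for 48 hours with each compound at five concentrations. Insufficient inhibition: endpoint recorded as highest concentration tested. The concentration for 50% growth inhibition is given as GI50.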 The source made the active and inactive calls. No stated cut-off is given here; in the data, active = GI50 up to about 1.1 µM and inactive = higher.

Among the test systems are 786-0; A498; CAKI-1; EKVX; HCT-15; HOP-62; Hs-578T; LOX IMVI; MDA-MB-435; NCI-H23; NCI-H522; NCI/ADR-RES; OVCAR-3; OVCAR-4; SF-268; SF-295; SK-MEL-5; TK-10; UACC-257; UO-31.
Common to all, as to experiment: inhibition of tumour cell growth, NCI panel, 48 h

Consider `C=CCC1(C)CCCN(Cc2ccccc2)C1=O` (stereo not given), for which the GI50 in the assay with 786-0 was > 10 µM (inactive); with A498, 1.32 µM (inactive); in the assay with CAKI-1, > 10 µM (inactive); in the assay on EKVX, > 10 µM (inactive); in the assay with HCT-15 it was greater than 10 µM; with HOP-62, > 10 µM (inactive). The GI50 with Hs-578T, with LOX IMVI, in the assay with MDA-MB-435, in the assay on NCI-H23, in the assay on NCI-H522 and in the assay with NCI/ADR-RES was > 10 µM (inactive) throughout. Moreover, the GI50 in the assay on OVCAR-3 was > 10 µM (inactive); in the assay on OVCAR-4, > 10 µM (inactive); in the assay on SF-268, > 10 µM (inactive); in the assay with SF-295 it was > 10 µM (inactive); with SK-MEL-5, 0.41 µM (active); in the assay with TK-10, > 10 µM (inactive). Besides, the GI50 with UACC-257 and with UO-31 was > 10 µM (inactive) in each case.
On to `CC(=N\N)/C(C)=N/N=C(C)/C(C)=N/N`, for which the GI50 was > 100 µM (inactive) in the assay with 786-0; > 100 µM (inactive) in the assay with A498; > 100 µM (inactive) in the assay with CAKI-1; > 100 µM (inactive) with EKVX; greater than 100 µM with HCT-15; > 100 µM (inactive) in the assay with HOP-62. Besides, the GI50 in the assay on Hs-578T, in the assay with LOX IMVI, in the assay with MDA-MB-435, with NCI-H23, with NCI-H522 and in the assay on NCI/ADR-RES was > 100 µM (inactive) throughout. The GI50 in the assay on OVCAR-3, in the assay with OVCAR-4, in the assay on SF-268, in the assay with SF-295, in the assay with SK-MEL-5 and in the assay with TK-10 was > 100 µM (inactive) throughout. Moreover, the GI50 with UACC-257 and in the assay with UO-31 was > 100 µM (inactive) each time.
As to `CN1CCCC(C(=O)OCC(=O)C2(O)CCC3C4CCC5=CC(=O)CCC5(C)C4C(O)CC32C)C1` (stereo not given), the GI50 was 4.2 µM (inactive) in the assay on 786-0; 16.4 µM (inactive) in the assay with A498; 24.2 µM (inactive) in the assay on CAKI-1; 17.1 µM (inactive) in the assay with EKVX; 18.7 µM with HCT-15; 14.6 µM (inactive) in the assay with HOP-62. In addition, the GI50 in the assay on Hs-578T is 35.3 µM (inactive); in the assay with LOX IMVI, 10.9 µM (inactive); in the assay on MDA-MB-435, 12.6 µM (inactive); in the assay with NCI-H23, 20.5 µM (inactive); in the assay on NCI-H522, 17.3 µM (inactive); in the assay on NCI/ADR-RES, 20 µM (inactive). Also, the GI50 in the assay on OVCAR-3 was 17 µM (inactive); in the assay on OVCAR-4, 13.4 µM (inactive); with SF-268 it was 20.9 µM (inactive); in the assay on SF-295, 19.9 µM (inactive); in the assay on SK-MEL-5 it was 19.1 µM (inactive); with TK-10 it was 12.5 µM (inactive). In addition, the GI50 with UACC-257 is 18.3 µM (inactive); with UO-31 it was 8.11 µM (inactive).
On to `CC12CC(c3ccccc3O1)C(C(=O)Nc1nccs1)C(=O)N2` (stereo not given), for which the GI50 with 786-0 is > 100 µM (inactive); in the assay with A498 it was > 100 µM (inactive); with CAKI-1, > 100 µM (inactive); in the assay on EKVX, 35.7 µM (inactive); with HCT-15, greater than 100 µM; with HOP-62 it was > 100 µM (inactive). The GI50 with Hs-578T, with LOX IMVI, with MDA-MB-435, in the assay with NCI-H23, in the assay on NCI-H522 and with NCI/ADR-RES was > 100 µM (inactive) each time. Also, the GI50 in the assay on OVCAR-3, with OVCAR-4, in the assay with SF-268, with SF-295, with SK-MEL-5 and with TK-10 was > 100 µM (inactive) in each case. In addition, the GI50 in the assay on UACC-257 and in the assay on UO-31 was > 100 µM (inactive) each time.
Turning to `COc1cc(/C=N/n2c(-c3ccccc3)n[nH]c2=O)cc(OC)c1OC`, the GI50 is 3.5 µM (inactive) with 786-0; 3.15 µM (inactive) with A498; 1.1 µM (active) in the assay with CAKI-1; 11.4 µM (inactive) with EKVX; 0.708 µM in the assay on HCT-15; 4.93 µM (inactive) in the assay with HOP-62. For the same compound, the GI50 was 3.56 µM (inactive) in the assay on Hs-578T; 3.22 µM (inactive) with LOX IMVI; 0.218 µM (active) in the assay on MDA-MB-435; 4.41 µM (inactive) in the assay on NCI-H23; 0.675 µM (active) in the assay with NCI-H522; 1.44 µM (inactive) in the assay with NCI/ADR-RES. Besides, the GI50 in the assay on OVCAR-3 is 4.63 µM (inactive); with OVCAR-4, > 26.9 µM (inactive); with SF-268, 3.51 µM (inactive); in the assay with SF-295, 0.745 µM (active); with SK-MEL-5, 0.815 µM (active); in the assay on TK-10, 4.17 µM (inactive). Also, the GI50 is > 100 µM (inactive) in the assay with UACC-257 and 5.71 µM (inactive) with UO-31.
For `CC(=S)N/C=C1/C(=O)C=C(C)OC1=O`, the GI50 in the assay with 786-0 is > 100 µM (inactive); with A498, > 100 µM (inactive); in the assay on CAKI-1, > 100 µM (inactive); in the assay with EKVX it was > 100 µM (inactive); in the assay with HCT-15, greater than 100 µM; with HOP-62, > 100 µM (inactive). The GI50 in the assay on Hs-578T, with LOX IMVI, in the assay with MDA-MB-435, with NCI-H23, with NCI-H522 and in the assay on NCI/ADR-RES was > 100 µM (inactive) each time. Further, the GI50 in the assay on OVCAR-3 was > 100 µM (inactive); in the assay with OVCAR-4, > 100 µM (inactive); in the assay with SF-268 it was > 100 µM (inactive); in the assay on SF-295, > 100 µM (inactive); in the assay on SK-MEL-5, 90.2 µM (inactive); in the assay with TK-10, > 100 µM (inactive). Also, the GI50 with UACC-257 and with UO-31 was > 100 µM (inactive) throughout.
Regarding `O=C1Nc2c(Cl)cc(Cl)cc2/C1=N/Nc1ccccc1[N+](=O)[O-]`, the GI50 in the assay on 786-0 was 5.75 µM (inactive); with A498, 55.7 µM (inactive); with CAKI-1 it was 39.4 µM (inactive); in the assay with EKVX, 5.7 µM (inactive); in the assay with HCT-15, 72.1 µM; in the assay on HOP-62 it was 5.47 µM (inactive). Moreover, the GI50 in the assay on Hs-578T is 8.32 µM (inactive); with LOX IMVI, 84.5 µM (inactive); with MDA-MB-435, > 100 µM (inactive); in the assay on NCI-H23 it was 26.1 µM (inactive); in the assay on NCI-H522 it was 35.2 µM (inactive); in the assay on NCI/ADR-RES, 40.3 µM (inactive). The GI50 in the assay on OVCAR-3 is 50.7 µM (inactive); in the assay with OVCAR-4, 29 µM (inactive); in the assay with SF-268 it was 25.1 µM (inactive); in the assay with SF-295, 11.7 µM (inactive); in the assay with SK-MEL-5, > 100 µM (inactive); with TK-10, 22.6 µM (inactive). In addition, the GI50 in the assay on UACC-257 and with UO-31 was > 100 µM (inactive) in each case.
In the case of `CC(=O)NC1C(OCc2ccccc2)OC(CO)C(O)C1OC(C)C(=O)NC(C)C(=O)N[C@@H](CCC(=O)OCCCNC1c2ccccc2Nc2cccc([N+](=O)[O-])c21)C(N)=O` (stereo not given in full), the GI50 in the assay on 786-0 was < 0.01 µM (active); with A498, < 0.01 µM (active); in the assay on CAKI-1, < 0.01 µM (active); in the assay with EKVX, 0.0135 µM (active); in the assay with HCT-15 it was 0.0028 µM; in the assay with HOP-62, < 0.01 µM (active). The GI50 was 0.0216 µM (active) with Hs-578T; 0.0269 µM (active) with LOX IMVI; 0.0157 µM (active) in the assay with MDA-MB-435; < 0.01 µM (active) in the assay on NCI-H23; < 0.01 µM (active) in the assay on NCI-H522; 0.0145 µM (active) in the assay on NCI/ADR-RES. Also, the GI50 in the assay with OVCAR-3 is < 0.01 µM (active); with OVCAR-4, < 0.0111 µM (active); with SF-268, < 0.01 µM (active); with SF-295, 0.0155 µM (active); in the assay with SK-MEL-5, < 0.01 µM (active); in the assay with TK-10, < 0.01 µM (active). Also, the GI50 was 0.0123 µM (active) in the assay on UACC-257 and < 0.01 µM (active) with UO-31.
As to `CC(=O)O[C@H]1C[C@H](O[C@H]2[C@@H](O)C[C@H](O[C@H]3[C@@H](O)C[C@H](O[C@H]4CC[C@@]5(C)[C@H](CC[C@@H]6[C@@H]5CC[C@]5(C)[C@@H](C7=CC(=O)OC7)CC[C@]65O)C4)O[C@@H]3C)O[C@@H]2C)O[C@H](C)[C@H]1O[C@@H]1O[C@H](CO)[C@@H](O)[C@H](O)[C@H]1O`, the GI50 in the assay with 786-0 was 0.0162 µM (active); in the assay on A498, 0.0269 µM (active); in the assay on CAKI-1 it was < 0.01 µM (active); in the assay on EKVX, < 0.0148 µM (active); with HCT-15 it was 0.0231 µM; with HOP-62, < 0.01 µM (active). For the same compound, the GI50 in the assay on Hs-578T is < 0.01 µM (active); with LOX IMVI, < 0.0159 µM (active); with MDA-MB-435, 0.034 µM (active); in the assay on NCI-H23 it was < 0.01 µM (active); with NCI-H522, < 0.01 µM (active); in the assay on NCI/ADR-RES it was < 0.0169 µM (active). In addition, the GI50 is < 0.01 µM (active) in the assay on OVCAR-3; < 0.0179 µM (active) in the assay on OVCAR-4; < 0.0125 µM (active) in the assay with SF-268; < 0.0161 µM (active) in the assay with SF-295; 0.0237 µM (active) in the assay on SK-MEL-5; 0.0174 µM (active) with TK-10. Moreover, the GI50 is 0.0726 µM (active) in the assay on UACC-257 and 0.0242 µM (active) with UO-31.
On to `CCCCCCCCCC[C@@H](O)[C@H]1CC[C@@H]([C@H]2CC[C@H]([C@H](O)CCCCCCCCCC[C@@H]3CC(CC(C)=O)C(=O)O3)O2)O1` (stereo not given in full), for which the GI50 is 25.8 µM (inactive) in the assay with 786-0; 38 µM (inactive) in the assay with A498; 31 µM (inactive) in the assay on CAKI-1; 0.372 µM (active) in the assay on EKVX; 5.12 µM in the assay with HCT-15; 7.55 µM (inactive) in the assay with HOP-62. The GI50 is 1.04 µM (active) in the assay on Hs-578T; 1.23 µM (inactive) in the assay on LOX IMVI; 32.4 µM (inactive) in the assay on MDA-MB-435; 0.00223 µM (active) with NCI-H23; 12.8 µM (inactive) in the assay on NCI-H522; 0.167 µM (active) with NCI/ADR-RES. In addition, the GI50 was 3.75 µM (inactive) in the assay with OVCAR-3; 18.9 µM (inactive) in the assay on OVCAR-4; 2.1 µM (inactive) in the assay on SF-268; 1.77 µM (inactive) in the assay with SF-295; 0.01 µM (active) with SK-MEL-5; 4.73 µM (inactive) with TK-10. The GI50 in the assay with UACC-257 was 2.14 µM (inactive); with UO-31 it was 2.49 µM (inactive).
